Reference: patent EP4800036A1, “ANTIBODY OR TROP2 ANTIGEN BINDING FRAGMENT BINDING TO TROP2, ANTI-TROP2 CAR, AND USE” (priority 2023, dated 2025)

T1: Human TROP-2/TACSTD2 Protein, His Tag (ACRO, catalog No. TR2-H5223) (human, UniProt P09758 27-274)
T1 construct: extracellular domain; Bought protein; also called Trop2-His; Trop2-His antigen; not shown: His tag
T1 sequence (looked up): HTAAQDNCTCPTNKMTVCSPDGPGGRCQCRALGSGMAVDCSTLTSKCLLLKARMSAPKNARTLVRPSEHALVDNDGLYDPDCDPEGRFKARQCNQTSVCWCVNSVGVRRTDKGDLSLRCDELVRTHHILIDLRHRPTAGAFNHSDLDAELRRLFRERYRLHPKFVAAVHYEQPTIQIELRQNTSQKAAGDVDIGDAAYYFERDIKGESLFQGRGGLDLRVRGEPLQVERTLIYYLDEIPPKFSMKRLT

B1: anti-Trop2 positive clone 3 (T3), phage scFv (scFv)
scFv: DIQMTQSPSTLSASVGDRVTITCRASQSISSWLAWYQQKPGKAPKLLIYKASSLESGVPPRFSGSGSGAEFTLTISSLQPDDFATYYCQQYNSYPLTFGGGTKVEVKGGGGSGGGGSGGGGSEVQLVQSGGGLVQPGGSLRLSCEDSGFTFSSYWMSWVRQAPGKGLEWVSSISSSSSYIYYADSVKGRFTISRDNAKNSLYLQMNSLRGEDTAVYYCAREQSSSGFDYWGQGTLVTVSS
notes: also called T3 clone; T3 anti-Trop2 scFv

Experiments:
[1] = tested on: triple-negative breast cancer; conditions: third-line treatment; cited from earlier work
[2] = tested on: NSCLC; conditions: 44 patients with NSCLC; cited from earlier work
[3] = tested on: advanced NSCLC; conditions: patients with advanced NSCLC; cited from earlier work
[4] = tested on: small cell lung cancer; conditions: 50 patients with small cell lung cancer; cited from earlier work
[5] = biological target: T1, Human TROP-2/TACSTD2 Protein, His Tag …; assay: phage ELISA, Trop2-His coated at 1 µg/mL, anti-M13-HRP detection

Molecule	disease control rate [1] [%]	patients who experienced tumor shrinkage at least once [1] [%]	progression-free survival (PFS) rate [1] [%]	PFS [2] [months]	clinical benefit rate (complete response + partial response + stable disease ≥ 4 months) [2] [%]	objective response rate (ORR) [2] [%]	overall survival [3] [months]	ORR [4] [%]	PFS [4] [months]	clinical benefit rate (complete response + partial response + stable disease ≥ 4 months) [4] [%]	binding result [5]
Sacituzumab govitecan [IMMU-132]	45	74	33.3	5.2	43	19	9.5	14	3.7	34	
B1											binds
